We go through 33 compounds from ChEMBL document CHEMBL1201862, “PubChem BioAssay data set” (2004).

The CC50 is the concentration at which the toxic effect on the cells reaches its halfway point.

The structures appear in SMILES notation. Calls of active or inactive are those of the source. Rule as the data show it, for most assays here: actives have a measured EC50 and inactives only a lower limit. A value given as a limit tells only on which side of the number the result lay.

Assay [1] deals with T1, Heat shock factor protein 1 (Mus musculus, UniProt P38532).
T1 sequence (P38532 whole entry): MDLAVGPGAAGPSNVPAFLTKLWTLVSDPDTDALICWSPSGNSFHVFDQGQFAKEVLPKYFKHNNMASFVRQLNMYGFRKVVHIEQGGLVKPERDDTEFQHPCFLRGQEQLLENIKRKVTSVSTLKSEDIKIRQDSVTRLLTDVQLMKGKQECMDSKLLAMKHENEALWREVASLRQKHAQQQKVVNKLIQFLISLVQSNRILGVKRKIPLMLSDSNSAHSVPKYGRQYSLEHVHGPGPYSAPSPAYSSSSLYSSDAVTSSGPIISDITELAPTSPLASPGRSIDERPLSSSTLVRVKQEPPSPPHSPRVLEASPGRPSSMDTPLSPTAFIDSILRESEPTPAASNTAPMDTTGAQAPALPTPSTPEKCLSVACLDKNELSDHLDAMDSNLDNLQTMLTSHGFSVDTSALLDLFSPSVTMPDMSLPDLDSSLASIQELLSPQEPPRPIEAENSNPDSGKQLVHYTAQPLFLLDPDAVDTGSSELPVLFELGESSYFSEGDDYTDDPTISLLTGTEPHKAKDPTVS
Put plainly: inhibition of MG132-induced HSE-luciferase signal, confirmation, cell-based, NIH3T3, luminescence, dose retest (AID 2382).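 Also: NIH3T3 fibroblasts with HSF1-driven luciferase reporter stressed by proteasome inhibitor MG132; luminescence from HSF1-driven luciferase expression after 8 hours of MG132 stress.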 Format: functional.

Assay [2] is described as follows: HEp-2 cell cytotoxicity, dose response, cytotoxicity control for RSV inhibitor project, HTS (AID 2410). It counts as functional. The following applies: human respiratory syncytial virus.
Assay [3] has as its system Streptococcus sp. 'group A'. Put plainly: growth inhibition of control SK(-) GAS strain, dose response, counter-screen for streptokinase expression inhibitor project, luminescence, kanamycin, BacTiterGlo, confirmation (AID 1900). Format: functional, organism-based.
A further assay deals with T2, Streptokinase A (Streptococcus pyogenes serotype M1, UniProt P10520).
T2 sequence (P10520 whole entry): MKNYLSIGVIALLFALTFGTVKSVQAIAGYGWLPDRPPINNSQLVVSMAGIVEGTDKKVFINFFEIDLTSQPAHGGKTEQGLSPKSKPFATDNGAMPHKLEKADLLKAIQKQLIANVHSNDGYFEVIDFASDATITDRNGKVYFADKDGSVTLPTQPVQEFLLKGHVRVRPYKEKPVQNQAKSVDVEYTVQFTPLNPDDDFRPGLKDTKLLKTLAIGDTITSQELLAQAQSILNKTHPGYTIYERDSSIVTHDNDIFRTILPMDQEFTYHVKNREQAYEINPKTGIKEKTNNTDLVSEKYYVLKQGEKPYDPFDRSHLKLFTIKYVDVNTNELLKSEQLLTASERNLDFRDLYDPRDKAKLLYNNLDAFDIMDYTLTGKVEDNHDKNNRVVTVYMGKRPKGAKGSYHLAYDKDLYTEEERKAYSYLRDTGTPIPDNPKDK
Put plainly: S. pyogenes streptokinase expression inhibitors, potency, dose response, plasminogen activation absorbance, OD405 (AID 1914).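 Also: secreted streptokinase activity via plasminogen activation per viability signal from cell pellet.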 It counts as functional, Streptococcus pyogenes M1 GAS.

The test system of the next assay is Streptococcus. In words: Group A Streptococcus viability loss, dose response, counter-screen for streptokinase expression inhibitor project, luminescence, BacTiterGlo (AID 1915).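 Also: potency for reduction of bacterial viability or growth.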 Format: functional, organism-based. In general terms: A counterscreen serves to expose hits that act by an unwanted route or on another target.
A short description of assay [4]: inhibitors of firefly luciferase expression or activity, dose response, H4 neuroglioma cells, luminescence (AID 1990). It counts as functional, cell-based.
Assay [5] is described as follows: Luminescence Cell-Based Dose Response HTS to Identify Inhibitors of 5'UTR Stem-Loop Driven Prion Protein mRNA Translation in H4 Neuroglioblastoma Cells. [Related pubchem assays: 1827 (Project Summary), 1813 (Primary HTS)]. Format: functional.
Assay [6] in a line: inhibitors of SNCA 5'UTR-driven reporter translation, confirmation, H4 neuroglioma cells, luminescence (AID 1988). Format: functional, cell-based.
Assay [7] in a line: Luminescence Cell-Based Dose Confirmation HTS to Identify Activators of 5'UTR Stem-Loop Driven Alpha-Synuclein mRNA Translation in H4 Neuroglioblastoma Cells. [Related pubchem assays: 1829 (Project Summary), 1814 (Primary HTS)]. Format: functional.
The nature of assay [8]: Luminescence Cell-Based Dose Response HTS to Identify Activators of Luciferase Translation or Activity in H4 […] Cells. [Related pubchem assays: 1829 (Project Summary), 1814 (Primary HTS)]. Format: functional.
The test system of the next assay is H4. Put plainly: Luminescence Cell-Based Dose Response HTS to Identify Activators of 5'UTR Stem-Loop Driven Prion Protein mRNA Translation in H4 Neuroglioblastoma Cells. [Related pubchem assays: 1829 (Project Summary), 1814 (Primary HTS)]. It counts as functional. The note with it: Homo sapiens.
A short description of assay [9]: NIH-3T3 fibroblast cytotoxicity, dose response, cytotoxicity control, cell-based, fluorescence, Alamar Blue, secondary assay (AID 2327).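 Also: NIH-3T3 mouse fibroblasts cultured with fluconazole at 8 µg/mL.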 Format: functional. For orientation: The colour change of resazurin is a common sign of viable cells or microbes.
Assay [10] deals with T3, Corticotropin-releasing factor receptor 2/Corticotropin-releasing factor-binding protein (Homo sapiens, UniProt P24387+Q13324).
T3 sequence (Q13324 whole entry): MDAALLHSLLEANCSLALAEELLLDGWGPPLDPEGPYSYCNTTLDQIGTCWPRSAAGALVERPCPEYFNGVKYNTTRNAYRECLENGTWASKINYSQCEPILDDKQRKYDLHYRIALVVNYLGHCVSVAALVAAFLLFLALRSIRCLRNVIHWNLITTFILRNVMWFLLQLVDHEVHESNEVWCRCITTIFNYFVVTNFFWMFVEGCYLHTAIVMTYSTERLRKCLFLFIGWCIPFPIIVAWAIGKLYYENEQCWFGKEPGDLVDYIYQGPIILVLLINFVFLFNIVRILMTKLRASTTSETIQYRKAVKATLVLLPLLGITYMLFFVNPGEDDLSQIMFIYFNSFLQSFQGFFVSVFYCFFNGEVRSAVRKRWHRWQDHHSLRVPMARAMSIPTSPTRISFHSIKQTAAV
T3 sequence (P24387 whole entry): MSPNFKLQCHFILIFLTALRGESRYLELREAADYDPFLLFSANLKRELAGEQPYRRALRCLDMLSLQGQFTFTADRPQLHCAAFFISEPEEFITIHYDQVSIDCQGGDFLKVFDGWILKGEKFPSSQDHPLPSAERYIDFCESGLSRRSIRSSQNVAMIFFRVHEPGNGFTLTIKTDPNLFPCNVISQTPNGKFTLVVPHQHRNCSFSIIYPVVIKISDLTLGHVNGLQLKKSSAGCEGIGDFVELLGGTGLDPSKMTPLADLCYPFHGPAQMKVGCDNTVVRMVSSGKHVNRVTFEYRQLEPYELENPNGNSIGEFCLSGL
In words: activators of CRF receptor 2 with binding protein – uHTS hits, confirmation (AID 602473). The following applies: read-out: EC50_Mean. It counts as functional.

Take `COc1ccc(OC)c(NC(=O)CSCC(=O)O)c1`: the EC50 in [1] was > 195 µM (not active).

With `CCCCc1c(C)nn(-c2nnc3c4ccccc4n(CC)c3n2)c1C`, in assay [2], the cytotoxic concentration (CC50) is 5.26 µM (active). The EC50 is 4.61 µM (active) in assay [3], > 150 µM (not active) at Streptokinase A and > 150 µM (not active) in the assay on Streptococcus.

Regarding `O=C(COC(=O)C1(c2ccccc2F)CCCC1)N1CCc2ccccc21`, in assay [1], the EC50 is reported as > 195 µM (not active).

In the case of `OCCCNc1nc(-c2ccc(Cl)cc2)nc2ccccc12`, the CC50 in [2] was > 50 µM (active).

Consider `Cn1c(-c2ccsc2)c(-c2cccs2)c2cc(-c3cccc4[nH]ccc34)ccc21`, for which, in [2], the CC50 was 32.1 µM (active).

As to `Cc1ccccc1C1=Nc2c(c(=O)n(C)c(=O)n2C)C(C(F)(F)F)(C(F)(F)F)N1`, the CC50 in assay [2] was > 50 µM (active).

As for `Cc1ccc(N(CC(=O)NCCSc2nc3ccccc3s2)S(=O)(=O)c2ccccc2)c(C)c1`, the EC50 was > 120 µM (not active) in [4], > 120 µM (not active) in assay [5] and 14.8 µM (active) in assay [6].

Take `CSc1c(CC(=O)Nc2ccccc2)n(C)c2ccccc12`: the EC50 in assay [4] is > 120 µM (not active); in assay [5], > 120 µM (not active); in assay [6], 0.344 µM (inconclusive).

Regarding `CC(=O)COc1ccc2c3c(c(=O)oc2c1C)CCCCC3`, the results for the EC50 (in [7]; in assay [8]; with H4) were 28.8 µM (active), 38.4 µM (active) and > 120 µM (not active), respectively.

For the compound `CCOC(=O)C1CCCN(Cc2cc(=O)oc3cc(C)c(C(C)C)cc23)C1` (centres undefined), in [2], the CC50 is 31.3 µM (active).

As for `O=C(Nc1cccc(-c2cn3c(n2)SCC3)c1)c1ccc(Br)o1`, in assay [9], the EC50 is > 150 µM (inconclusive).

`Cc1c(Cl)ccc2c(C(=O)NC(C)c3ccncc3)cc(-c3ccncc3)nc12` (centres undefined): the half-maximal cytotoxic concentration (CC50) in assay [2] was 25.1 µM (active).

As for `CCOC(=O)Cc1csc(NC(=O)c2ccc(S(=O)(=O)N3CCCCC3)cc2)n1`, the CC50 in assay [2] was 11.5 µM (active).

For `O=C(c1ccccc1Cl)N1N=C(c2ccc(Br)cc2)CC1c1nc2ccccc2[nH]1` (centres undefined), the CC50 in [2] is 14.3 µM (active).

With `Cc1[nH]c2ccc(C(=O)OC(C)C(=O)NC3CCCCC3C)cc2c1C` (centres undefined), in [2], the CC50 is 12.1 µM (active).

Consider `Cc1c(C(=O)Nc2nnc(C(F)(F)F)s2)oc2ccccc12`, for which the EC50 was 3.22 µM (active) in assay [7], 6.63 µM (active) in [8] and 72.7 µM (active) with H4.

Regarding `C#CCN1C(C)=C(C(=O)OC)C(c2cccc([N+](=O)[O-])c2)C(C(=O)OCC)=C1C` (centres undefined), the CC50 in [2] is 24.8 µM (active).

`Fc1cccc(/C=N/NC(=S)Nc2ccccc2Cl)c1`: the EC50 in [7] is 19.6 µM (active); in [8], 4.14 µM (active); with H4, > 120 µM (not active).

For `CCN(CC)CCSc1nnc2c3ccccc3n(CCc3ccccc3)c2n1`, the EC50 in assay [7] is > 120 µM (not active); in assay [8], 16.1 µM (active); in the assay with H4 it was > 120 µM (not active).

Turning to `CN(Cc1ccsc1)C(=O)Cn1cc(Br)ccc1=O`, the EC50 is > 120 µM (not active) in assay [7], 8.64 µM (active) in assay [8] and 31.7 µM (active) with H4.

Take `CC(=O)O[C@H]1CC[C@@]2(C)[C@@H](CC[C@@H]3[C@@H]2CC[C@]2(C)[C@@H](C(C)(C)O)C[C@@H]32)C1`: the cytotoxic concentration (CC50) in assay [2] was 36.9 µM (active).

Regarding `Cc1ccc(/C=C2\SC(N3CCCCC3)=NC2=O)cc1`, the EC50 is 53.1 µM (active) in assay [7], 10.1 µM (active) in assay [8] and 45.1 µM (active) in the assay on H4.

For `COc1cc(CN(C2CCCCC2C)S(=O)(=O)c2ccc(S(=O)(=O)NC3CC3)cc2)cc(OC)c1OC` (centres undefined), the EC50 in assay [4] is 103 µM (active); in [5], > 120 µM (not active); in [6] it was > 120 µM (not active).

Take `Cc1ccc(-c2nnc(SCC#CCOC(=O)c3cccs3)o2)cc1`: the EC50 in [7] was 8.34 µM (active); in [8] it was 37.3 µM (active); with H4, 13.8 µM (active).

Take `COc1nc(-c2ccccc2)cc(-c2ccc3c(c2)OCO3)c1C#N`: the figures for the EC50 in assay [4], in assay [5] and in assay [6] were 11.2 µM (inconclusive), 27.6 µM (active) and 3.63 µM (active), respectively.

In the case of `COc1ccc(C(=O)NCc2cc3ccccc3n2C)cc1`, the EC50 in assay [7] is 7.51 µM (active); in assay [8], 12 µM (active); in the assay on H4, 9.84 µM (active).

For the compound `Nc1n[nH]c(-c2cccc([N+](=O)[O-])c2)n1`, the EC50 in assay [9] was > 150 µM (inactive).

On to `COc1cccc(N2CCN(CC(=O)c3c[nH]c4ccc(OC)cc34)CC2C)c1` (centres undefined), for which the CC50 in assay [2] is 38.1 µM (active).

`COC(=O)c1cnc(Oc2ccc(NC(=O)NC(=O)c3c(OC)cccc3OC)cc2)cc1C(F)(F)F`: the EC50 was 0.293 µM (active) in assay [4], 0.142 µM (active) in assay [5] and 0.111 µM (active) in assay [6].

For the compound `O=S(=O)(c1cccc(-c2nnc(SCc3nc4ccccc4s3)o2)c1)N1CCOCC1`, the figures for the EC50 (in assay [7]; in assay [8]; in the assay with H4) were 5.25 µM (active), 21.4 µM (active) and > 120 µM (not active), respectively.

`CCOc1cc(-c2cc(-c3ccc(C)cc3)nc(N)c2C#N)ccc1O`: the EC50 in assay [4] is 14.7 µM (active); in assay [5] it was > 120 µM (not active); in assay [6] it was 10.7 µM (active).

Consider `COc1ccc2nc(-n3c(C)ccc3C)sc2c1`, for which the EC50 was 38 µM (active) in [7]; 8.93 µM (active) in [8]; > 150 µM (not active) in assay [3]; 60.8 µM (active) in the assay on H4; > 150 µM (not active) at Streptokinase A; > 150 µM (not active) in the assay with Streptococcus.

Consider `COCC1CCN(Cc2nc(-c3ccc4c(c3)OCO4)no2)C1` (centres undefined), for which the EC50 was 10.1 µM (active) in [7], 13.1 µM (active) in assay [8], 45 µM (active) with H4 and > 53 µM (inactive) in assay [10].
